The values below come from US10696691B2, “BACE1 inhibitors” (Hoffmann-La Roche Inc., priority 2015, dated 2020).

In one assay the test system is Aβ40. Put plainly: Lowering of Aβ40 in brain of wild-type mice. Type of assay: in vivo. The note with it: female C57Bl/6J mice, 30 mg/kg per os, 4 h, brain Aβ40 as percentage of the vehicle group; for response vs control in vivo at 30 mg/kg: Mus musculus, po, read-out: Aβ40 (wt mice, brain). As to the method:
Lowering of Aβ40 in Brain of Wild-Type Mice:
Animals and Housing Conditions.
Animals were maintained in a 12/12 h light/dark cycle, with lights starting at 6 a.m., and experiments were conducted during the light phase, Animal housing and experimental procedures were in line with ethical and legal guidelines and were authorized by local veterinary authorities.
Female C57Bl/6J mice were treated with a dose of 30 mg/kg of the compounds, 3-4 animals per treatment group. The test compound was dissolved in 5% EtOH, 10% Solutol, and was applied per os at 10 mL/kg. After 4 h, the animals were sacrificed and brain and plasma were collected. The brain was cut into halves and immediately frozen on dry ice. Brain was used for measurement of Aβ40 and plasma was used for determination of compound exposure. […] Brain tissue was homogenized in 2% DEA buffer in a Roche MagnaLyser (20″, 4000 rpm) and subsequently centrifuged for 1 h at 100000 g. DEA was reduced to 0.2% in 50 mM NaCl and one-half of the DEA lysate was passed over an Oasis Solid phase extraction plate (Waters; cat. no. 186000679), which had been activated with MeOH and equilibrated in dH2O (1 mL each). After washes in 10% and 30% MeOH (1 mL each), the Aβ-peptides were eluted in 0.8 mL of 2% NH4OH in 90% MeOH. The eluate was dried over a N2 flow, and the dried sample was reconstituted in 30 μL of AlphaLISA assay buffer. Aβ40 was determined by an AlphaLISA assay (Perkin-Elmer). In a white 96-well, half area microplate (Perkin-Elmer cat. no. 6005561), 20 μL of the reconstituted sample were mixed with 5 μL of biotinylated BAP-24 (specific for C-terminus of Aβ40) (Brockhaus, M.; Onmberg, J.; Rohrig, S.; Loetscher, H.; Wittenburg, N.; Baumeister, R.; Jacobsen, H.; Haass, C. Caspasemediated cleavage is not required for the activity of presenilins in amyloidogenesis and NOTCH signaling. NeuroReport 1998, 9, 1481-1486.) stock=4.4 mg/mL, f.c.5.5 μg/mL), and 5 μL 252Q6 acceptor beads (252Q6 antibody, Invitrogen AMB0062) had been previously conjugated with AlphaLISA Acceptor beads (Perkin-Elmer cat. no. 6772002); final dilution 1:500). The mix was incubated for 1 h at RT in the dark. Then 20 μL of Streptavin-coated Donor Beads (Perkin-Elmer cat. no. 6760002, final dilution 1:125) were added and this final mix was incubated in the dark for another 30 min at RT before RFU was measured in an AlphaScreen Reader (Perkin-Elmer Envision 2104). The value obtained for A40 in the treated animals was related to the value in the vehicle group and is given in %. Alternatively a commercial ELISA was used for Aβ40 determination (Wako ELISA: (“Human/Rat 3 Amyloid (40) ELISA kit Wako II”; cat nr. 294-64701) following the manufacture's instruction. Also here the Aβ-lowering efficacy was calculated as percentage of the vehicle group.

The target in another assay is T1, BACE1 (Homo sapiens, UniProt P56817).
T1 construct: endogenous in cells; host or cells: HEK293 APP cells
T1 sequence (P56817 46-501): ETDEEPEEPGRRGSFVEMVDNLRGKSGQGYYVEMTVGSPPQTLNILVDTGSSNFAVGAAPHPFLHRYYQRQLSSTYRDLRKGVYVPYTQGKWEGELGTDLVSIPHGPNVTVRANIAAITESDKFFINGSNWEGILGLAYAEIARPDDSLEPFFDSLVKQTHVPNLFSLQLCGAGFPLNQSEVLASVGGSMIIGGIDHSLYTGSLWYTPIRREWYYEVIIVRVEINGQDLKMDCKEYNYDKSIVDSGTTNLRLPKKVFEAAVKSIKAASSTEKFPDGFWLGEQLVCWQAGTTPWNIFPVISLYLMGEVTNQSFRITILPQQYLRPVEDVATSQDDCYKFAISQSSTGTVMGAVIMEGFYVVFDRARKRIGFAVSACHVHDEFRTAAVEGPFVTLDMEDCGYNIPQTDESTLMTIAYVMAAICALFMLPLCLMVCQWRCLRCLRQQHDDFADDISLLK
The assay is described as follows: Cellular Aβ-lowering assay (Abeta 40 AlphaLISA, HEK293 APP cells). Type of assay: cell-based. As to conditions: 18-20 hrs incubation, Aβ 40 in culture supernatants, read-out: BACE1 cell act. Aβ40 IC50. As to the method:
Cellular Aβ-Lowering Assay:
The Abeta 40 AiphaLISA Assay can be used. The HEK293 APP cells were seeded in 96 well Microtiter plates in cell culture medium (Iscove's, plus 10% (v/v) fetal bovine serum, penicillin/streptomycin) to about 80% confluency and the compounds were added at a 3× concentration in ⅓ volume of culture medium (final DMSO concentration was kept at 1% v/v). After 18-20 hrs incubation at 37° C. and 5% CO2 in a humidified incubator, the culture supernatants were harvested for the determination of Aβ 40 concentrations using Perkin-Elmer Human Amyloid beta 1-40 (high specificity) Kit (Cat # AL275C).
In a Perkin-Elmer White Optiplate-384 (Cat #6007290), 2 ul culture supernatants were combined with 2 μl of a 10× AlphaLISA Anti-hABAcceptor beads+Biotinylated Antibody Anti-AD 1-40 Mix (50 μg/mL/5 nM). After 1 hour room temperature incubation, 16 μl of a 1.25× preparation of Streptavidin (SA) Donor beads (25 μg/mL) were added and incubated for 30 minutes in the Dark. Light Emission at 615 nm was then recorded using EnVision-Alpha Reader. Levels of Aβ 40 in the culture supernatants were calculated as percentage of maximum signal (cells treated with 1% DMSO without inhibitor). The IC50 values were calculated using the Excel XLfit software.

On to `CC1(C)C(N)=N[C@](C)(c2cc(NC(=O)c3ncc(C#N)cc3Cl)ccc2F)[C@@H]2CCN=[S@@]21=O` [Example 2AB, N-(3-((3aS,4R,8R)-6-amino-4,7,7-trimethyl-8-oxido-3,3a,4,7-tetrahydro-2H-isothiazolo[1,5-a][1,4]thiazin-4-yl)-4-fluorophenyl)-3-chloro-5-cyanopicolinamide], for which the response vs control in vivo at 30 mg/kg in the assay with Aβ40 came out at 80%. Further, at BACE1, the concentration for half-maximal inhibition (IC50) worked out at 1000 pM.

Take `CC1(C)C(N)=N[C@](C)(c2cc(NC(=O)c3ncc(Cl)cc3Cl)ccc2F)[C@@H]2CCN=[S@@]21=O` [Example 3AB, N-(3-((3aS,4R,8R)-6-amino-4,7,7-trimethyl-8-oxido-3,3a,4,7-tetrahydro-2H-isothiazolo[1,5-a][1,4]thiazin-4-yl)-4-fluorophenyl)-3,5-dichloropicolinamide]: the response vs control in vivo at 30 mg/kg in the assay on Aβ40 worked out at 49%. Moreover, the IC50 on BACE1 stood at 1000 pM.

With `CC1(C)C(N)=N[C@](C)(c2cc(NC(=O)c3ccc(C#N)cc3Cl)ccc2F)[C@@H]2CCN=[S@@]21=O` [Example 4AB, N-(3-((3aS,4R,8R)-6-amino-4,7,7-trimethyl-8-oxido-3,3a,4,7-tetrahydro-2H-isothiazolo[1,5-a][1,4]thiazin-4-yl)-4-fluorophenyl)-2-chloro-4-cyanobenzamide], in the assay on Aβ40, the response vs control in vivo at 30 mg/kg turned out to be 102%. Also, the concentration for half-maximal inhibition (IC50) on BACE1 stood at 13100 pM.

On to `CC1(C)C(N)=N[C@](C)(c2cc(NC(=O)c3cnc(OCC(F)F)cn3)ccc2F)[C@@H]2CCN=[S@@]21=O` [Example 7AB, N-(3-((3aS,4R,8R)-6-amino-4,7,7-trimethyl-8-oxido-3,3a,4,7-tetrahydro-2H-isothiazolo[1,5-a][1,4]thiazin-4-yl)-4-fluorophenyl)-5-(2,2-difluoroethoxy)pyrazine-2-carboxamide], for which the response vs control in vivo at 30 mg/kg in the assay with Aβ40 amounted to 42%. The IC50 at BACE1 came to 400 pM.

As for `CC1(C)C(N)=N[C@](C)(c2cc(NC(=O)c3ncc(OC(F)F)cc3Cl)ccc2F)[C@@H]2CCN=[S@@]21=O` [Example 13AB, N-(3-((3aS,4R,8R)-6-amino-4,7,7-trimethyl-8-oxido-3,3a,4,7-tetrahydro-2H-isothiazolo[1,5-a][1,4]thiazin-4-yl)-4-fluorophenyl)-3-chloro-5-(difluoromethoxy)picolinamide], the response vs control in vivo at 30 mg/kg with Aβ40 was 39%. Moreover, the half-maximal inhibitory concentration (IC50) on BACE1 stood at 300 pM.

Turning to `COc1cnc(C(=O)Nc2ccc(F)c([C@@]3(C)N=C(N)C(C)(C)[S@@]4(=O)=NCC[C@@H]34)c2)cn1` [Example 14AB, N-(3-((3aS,4R,8R)-6-amino-4,7,7-trimethyl-8-oxido-3,3a,4,7-tetrahydro-2H-isothiazolo[1,5-a][1,4]thiazin-4-yl)-4-fluorophenyl)-5-methoxypyrazine-2-carboxamide], in the assay on Aβ40, the response vs control in vivo at 30 mg/kg was found to be 3%. Moreover, at BACE1, the half-inhibitory concentration (IC50) worked out at 500 pM.

As for `CC1(C)C(N)=N[C@](C)(c2cc(NC(=O)c3cnc(OC(F)F)cn3)ccc2F)[C@@H]2CCN=[S@@]21=O` [Example 15AB, N-(3-((3aS,4R,8R)-6-amino-4,7,7-trimethyl-8-oxido-3,3a,4,7-tetrahydro-2H-isothiazolo[1,5-a][1,4]thiazin-4-yl)-4-fluorophenyl)-5-(difluoromethoxy)pyrazine-2-carboxamide], in the assay with Aβ40, the response vs control in vivo at 30 mg/kg is 20%. Also, the half-inhibitory concentration (IC50) at BACE1 was 200 pM.

`CC1(C)C(N)=N[C@](C)(c2cc(NC(=O)c3ccc(F)cn3)ccc2F)[C@@H]2CCN=[S@@]21=O` [Example 17AB, N-(3-((3aS,4R,8R)-6-amino-4,7,7-trimethyl-8-oxido-3,3a,4,7-tetrahydro-2H-isothiazolo[1,5-a][1,4]thiazin-4-yl)-4-fluorophenyl)-5-fluoropicolinamide]: in the assay on Aβ40, the response vs control in vivo at 30 mg/kg worked out at 40%. The IC50 at BACE1 is 300 pM.

In the case of `CC1(C)C(N)=N[C@](C)(c2cc(NC(=O)c3cnc(OCC(F)(F)C(F)F)cn3)ccc2F)[C@@H]2CCN=[S@@]21=O` [Example 22AB, N-(3-((3aS,4R,8R)-6-amino-4,7,7-trimethyl-8-oxido-3,3a,4,7-tetrahydro-2H-isothiazolo[1,5-a][1,4]thiazin-4-yl)-4-fluorophenyl)-5-(2,2,3,3-tetrafluoropropoxy)pyrazine-2-carboxamide], the “Aβ40 (wt mice, brain)” value in the assay on Aβ40 turned out to be 51%. The IC50 at BACE1 amounted to 200 pM.

In the case of `CCOc1ccc(C(=O)Nc2ccc(F)c([C@@]3(C)N=C(N)C(C)(C)[S@@]4(=O)=NCC[C@@H]34)c2)nc1` [Example 25AB, N-(3-((3aS,4R,8R)-6-amino-4,7,7-trimethyl-8-oxido-3,3a,4,7-tetrahydro-2H-isothiazolo[1,5-a][1,4]thiazin-4-yl)-4-fluorophenyl)-5-ethoxypicolinamide], in the assay on Aβ40, the response vs control in vivo at 30 mg/kg is 40%. For the same compound, the IC50 at BACE1 was determined as 500 pM.

On to `COc1cnc(C(=O)Nc2ccc(F)c([C@@]3(C)N=C(N)C(C)(C)[S@@]4(=O)=NCC[C@@H]34)c2)c(C)c1` [Example 26AB, N-(3-((3aS,4R,8R)-6-amino-4,7,7-trimethyl-8-oxido-3,3a,4,7-tetrahydro-2H-isothiazolo[1,5-a][1,4]thiazin-4-yl)-4-fluorophenyl)-5-methoxy-3-methylpicolinamide], for which the response vs control in vivo at 30 mg/kg with Aβ40 stood at 11%. In addition, the IC50 on BACE1 worked out at 600 pM.

For `CCOc1cnc(C(=O)Nc2ccc(F)c([C@@]3(C)N=C(N)C(C)(C)[S@@]4(=O)=NCC[C@@H]34)c2)cn1` [Example 27AB, N-(3-((3aS,4R,8R)-6-amino-4,7,7-trimethyl-8-oxido-3,3a,4,7-tetrahydro-2H-isothiazolo[1,5-a][1,4]thiazin-4-yl)-4-fluorophenyl)-5-ethoxypyrazine-2-carboxamide], in the assay on Aβ40, the response vs control in vivo at 30 mg/kg was determined as 9%. Moreover, the IC50 on BACE1 was 400 pM.
